From article PMC5137160, “Optical imaging of MMP-12 active form in inflammation and aneurysm” (Scientific Reports, 2016)

Tests used:
[1] = biological target: T1, hMMP-1 (Homo sapiens, UniProt P03956); experiment: MMP inhibition assay (Ki); format: biochemical
T1 construct: purchased R&D Systems (Minneapolis, MN)
T1 sequence (P03956 100-469): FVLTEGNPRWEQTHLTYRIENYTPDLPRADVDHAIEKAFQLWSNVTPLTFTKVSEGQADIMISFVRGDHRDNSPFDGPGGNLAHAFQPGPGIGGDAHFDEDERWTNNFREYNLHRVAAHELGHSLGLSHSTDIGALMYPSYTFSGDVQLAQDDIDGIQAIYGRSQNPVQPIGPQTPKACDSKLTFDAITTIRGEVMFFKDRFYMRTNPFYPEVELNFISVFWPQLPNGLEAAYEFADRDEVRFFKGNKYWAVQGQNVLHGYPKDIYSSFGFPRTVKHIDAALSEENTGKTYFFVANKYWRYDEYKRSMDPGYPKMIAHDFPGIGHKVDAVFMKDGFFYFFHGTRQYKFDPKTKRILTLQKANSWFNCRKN
Procedure: (§1) Human MMP-8, -9, -12 and -13 were produced in the laboratory. Other MMPs were purchased from R&D Systems (Minneapolis, MN). MMP inhibition assays were carried out as previously described. Pro-MMPs were pre-activated by p-aminophenylmercuric acetate following the method described by R&D Systems. Titration experiments were carried out to determine active enzyme concentration for each MMP prior to the assay. For each probe, the percentage of inhibition was determined from five different concentrations in triplicates, chosen to reach a range of 20–80% inhibition. Ki values were determined using the method proposed by Horovitz and Leviski[45].

[2] = biological target: T2, hMMP-10 (Homo sapiens, UniProt P09238); experiment: MMP inhibition assay (Ki); format: biochemical
T2 construct: purchased R&D Systems (Minneapolis, MN)
Procedure: as §1

[3] = biological target: T3, hMMP-13 (Homo sapiens, UniProt P45452); experiment: MMP inhibition assay (Ki); format: biochemical
T3 construct: made in house
Procedure: as §1

[4] = biological target: T4, hMMP-14 (Homo sapiens, UniProt P50281); experiment: MMP inhibition assay (Ki); format: biochemical
T4 construct: purchased R&D Systems (Minneapolis, MN)
Procedure: as §1

[5] = biological target: T5, hMMP-2 (Homo sapiens, UniProt P08253); experiment: MMP inhibition assay (Ki); format: biochemical
T5 construct: purchased R&D Systems (Minneapolis, MN)
T5 sequence (P08253 110-660): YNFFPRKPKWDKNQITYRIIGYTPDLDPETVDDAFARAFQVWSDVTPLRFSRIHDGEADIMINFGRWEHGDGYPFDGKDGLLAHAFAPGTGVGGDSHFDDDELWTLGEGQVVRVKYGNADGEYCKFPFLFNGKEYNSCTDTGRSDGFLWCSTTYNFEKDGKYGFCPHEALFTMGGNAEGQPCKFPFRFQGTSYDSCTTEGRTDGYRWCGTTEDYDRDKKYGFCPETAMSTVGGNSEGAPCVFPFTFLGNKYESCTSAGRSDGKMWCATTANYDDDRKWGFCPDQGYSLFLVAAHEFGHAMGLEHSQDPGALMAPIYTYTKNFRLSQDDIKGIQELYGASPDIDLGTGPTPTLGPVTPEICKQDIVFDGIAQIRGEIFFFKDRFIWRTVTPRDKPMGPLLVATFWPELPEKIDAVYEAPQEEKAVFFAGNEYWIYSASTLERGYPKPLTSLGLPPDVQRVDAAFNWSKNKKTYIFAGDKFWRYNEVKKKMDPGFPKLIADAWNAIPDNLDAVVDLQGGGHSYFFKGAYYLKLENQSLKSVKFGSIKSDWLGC
Procedure: as §1

[6] = biological target: T6, hMMP-3 (Homo sapiens, UniProt P08254); experiment: MMP inhibition assay (Ki); format: biochemical
T6 construct: purchased R&D Systems (Minneapolis, MN)
Procedure: as §1

[7] = biological target: T7, hMMP-7 (Homo sapiens, UniProt P09237); experiment: MMP inhibition assay (Ki); format: biochemical
T7 construct: purchased R&D Systems (Minneapolis, MN)
T7 sequence (P09237 95-267): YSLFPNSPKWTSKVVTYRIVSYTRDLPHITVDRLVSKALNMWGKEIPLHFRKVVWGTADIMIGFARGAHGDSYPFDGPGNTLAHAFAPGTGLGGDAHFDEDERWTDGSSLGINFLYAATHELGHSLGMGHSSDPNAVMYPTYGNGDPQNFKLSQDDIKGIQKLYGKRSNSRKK
Procedure: as §1

[8] = biological target: T8, hMMP-8 (Homo sapiens, UniProt P22894); experiment: MMP inhibition assay (Ki); format: biochemical
T8 construct: made in house
Procedure: as §1

[9] = biological target: T9, hMMP-9 (Homo sapiens, UniProt P14780); experiment: MMP inhibition assay (Ki); format: biochemical
T9 construct: made in house
Procedure: as §1

[10] = biological target: hMMP-12; experiment: MMP inhibition assay (Ki); format: biochemical, human
Procedure: as §1

[11] = biological target: TACE (Homo sapiens, UniProt P78536); experiment: Metalloprotease inhibition assay (Ki); format: biochemical
[12] = biological target: T10, ADAMTS-5 (Homo sapiens, UniProt Q9UNA0); experiment: Metalloprotease inhibition assay (Ki); format: biochemical
T10 sequence (Q9UNA0 262-930): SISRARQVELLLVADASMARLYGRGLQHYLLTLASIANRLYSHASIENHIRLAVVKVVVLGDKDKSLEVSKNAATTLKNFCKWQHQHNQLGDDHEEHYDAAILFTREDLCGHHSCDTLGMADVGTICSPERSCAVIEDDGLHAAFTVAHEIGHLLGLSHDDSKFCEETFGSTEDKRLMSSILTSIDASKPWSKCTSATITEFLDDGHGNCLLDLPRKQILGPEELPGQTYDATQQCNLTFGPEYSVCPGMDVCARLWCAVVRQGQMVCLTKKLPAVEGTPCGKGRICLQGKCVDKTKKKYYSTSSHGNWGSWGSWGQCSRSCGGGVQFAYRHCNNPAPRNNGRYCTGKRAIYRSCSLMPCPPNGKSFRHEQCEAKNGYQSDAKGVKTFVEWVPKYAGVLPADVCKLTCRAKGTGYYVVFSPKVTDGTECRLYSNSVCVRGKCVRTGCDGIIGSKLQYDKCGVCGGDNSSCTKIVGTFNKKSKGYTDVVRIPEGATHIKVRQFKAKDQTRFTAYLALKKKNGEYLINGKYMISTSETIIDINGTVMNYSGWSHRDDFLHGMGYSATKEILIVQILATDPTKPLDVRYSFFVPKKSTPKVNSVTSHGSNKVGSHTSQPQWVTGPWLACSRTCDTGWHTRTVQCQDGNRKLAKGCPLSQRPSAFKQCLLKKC

[13] = test system: MMP-12; set-up: method as in PMID 21212406; settings: high fat-fed apoE-/- mice ref 3; cited from earlier work
[14] = biological target: T11, MMP-12 (Mus musculus, UniProt P34960); experiment: Co-immunostaining of carotid artery sections with probe, fluorescence microscopy; set-up: species or system mice
T11 construct: from tissue; host or cells: CaCl2-induced aneurysmal left carotid artery of apoE-deficient mice (in vivo imaging and cryostat sections)
Procedure: Hematoxylin and eosin (H&E) staining and immunostaining of tissues were performed according to standard protocols on 5-μm-thick cryostat sections. For immunostaining, primary antibodies included anti-MMP-12 (sc-30072, Santa Cruz Biotechnology, Dallas, TX), anti-CD68 (AbD serotec, Raleigh, NC), anti-F4/80 (Cedarlane, Burlington, NC) and anti-CD31 (BD Pharmingen, San Jose, CA). Isotype-matched antibodies were used as controls. For co-immunostaining, tissue sections were fixed with acetone, and stained with the antibody followed by probe 2. Nuclei were stained with DAPI using ProLong® Gold Antifade Mountant with DAPI (Molecular Probes, Eugene, OR). The slides were photographed using a Spot RT3 camera (Diagnostic Instruments, Sterling Heights, MI) and a Zeiss Axiophot fluorescence microscope (Carl Zeiss Microscopy GmbH, Jena, Germany).

Chain of TACE (P78536 215-824): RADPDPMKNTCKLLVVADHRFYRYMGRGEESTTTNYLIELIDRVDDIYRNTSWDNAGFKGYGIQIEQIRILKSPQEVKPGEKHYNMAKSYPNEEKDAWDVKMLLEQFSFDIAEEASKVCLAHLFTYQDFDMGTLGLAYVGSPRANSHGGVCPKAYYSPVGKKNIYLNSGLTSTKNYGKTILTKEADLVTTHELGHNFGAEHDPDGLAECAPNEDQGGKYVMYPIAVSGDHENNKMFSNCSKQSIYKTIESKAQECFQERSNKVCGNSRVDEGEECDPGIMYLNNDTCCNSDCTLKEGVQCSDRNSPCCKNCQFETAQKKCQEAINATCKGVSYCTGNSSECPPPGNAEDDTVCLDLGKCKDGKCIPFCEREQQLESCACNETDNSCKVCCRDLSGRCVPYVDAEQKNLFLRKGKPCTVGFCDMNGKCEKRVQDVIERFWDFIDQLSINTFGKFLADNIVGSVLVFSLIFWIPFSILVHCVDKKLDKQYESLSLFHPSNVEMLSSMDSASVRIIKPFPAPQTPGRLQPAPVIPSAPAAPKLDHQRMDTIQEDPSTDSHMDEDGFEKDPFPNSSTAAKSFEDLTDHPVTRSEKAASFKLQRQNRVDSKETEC
T2 sequence (P09238 99-476): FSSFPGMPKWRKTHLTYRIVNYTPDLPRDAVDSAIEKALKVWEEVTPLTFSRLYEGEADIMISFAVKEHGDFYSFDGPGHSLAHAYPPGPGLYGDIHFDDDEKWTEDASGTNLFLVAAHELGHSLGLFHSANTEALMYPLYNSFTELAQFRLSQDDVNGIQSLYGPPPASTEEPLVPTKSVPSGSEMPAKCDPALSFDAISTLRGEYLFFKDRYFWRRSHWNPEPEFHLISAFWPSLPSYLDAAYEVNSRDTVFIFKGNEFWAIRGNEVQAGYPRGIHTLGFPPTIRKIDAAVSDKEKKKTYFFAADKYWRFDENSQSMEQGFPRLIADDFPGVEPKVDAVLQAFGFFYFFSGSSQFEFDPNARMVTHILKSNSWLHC
T6 sequence (P08254 100-477): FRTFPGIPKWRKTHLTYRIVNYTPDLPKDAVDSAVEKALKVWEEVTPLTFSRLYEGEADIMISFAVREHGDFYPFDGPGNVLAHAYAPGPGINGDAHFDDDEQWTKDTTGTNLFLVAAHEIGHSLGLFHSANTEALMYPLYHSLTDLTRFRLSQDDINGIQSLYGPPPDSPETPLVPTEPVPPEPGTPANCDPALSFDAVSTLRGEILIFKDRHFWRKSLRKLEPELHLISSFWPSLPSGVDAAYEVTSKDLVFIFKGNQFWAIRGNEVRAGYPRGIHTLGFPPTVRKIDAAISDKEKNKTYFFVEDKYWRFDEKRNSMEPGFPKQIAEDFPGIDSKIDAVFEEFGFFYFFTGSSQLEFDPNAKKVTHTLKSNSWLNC
T8 sequence (P22894 101-467): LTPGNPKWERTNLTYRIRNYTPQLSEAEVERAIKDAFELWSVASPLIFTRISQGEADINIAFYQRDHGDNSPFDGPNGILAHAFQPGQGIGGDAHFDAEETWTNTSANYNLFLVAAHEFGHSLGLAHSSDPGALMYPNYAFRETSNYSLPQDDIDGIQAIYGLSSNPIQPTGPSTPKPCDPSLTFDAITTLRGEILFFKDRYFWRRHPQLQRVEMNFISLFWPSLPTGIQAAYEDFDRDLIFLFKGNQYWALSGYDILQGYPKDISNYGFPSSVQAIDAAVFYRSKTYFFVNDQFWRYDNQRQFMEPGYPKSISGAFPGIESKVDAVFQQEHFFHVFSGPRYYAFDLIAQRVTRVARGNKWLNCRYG
T9 sequence (P14780 94-707): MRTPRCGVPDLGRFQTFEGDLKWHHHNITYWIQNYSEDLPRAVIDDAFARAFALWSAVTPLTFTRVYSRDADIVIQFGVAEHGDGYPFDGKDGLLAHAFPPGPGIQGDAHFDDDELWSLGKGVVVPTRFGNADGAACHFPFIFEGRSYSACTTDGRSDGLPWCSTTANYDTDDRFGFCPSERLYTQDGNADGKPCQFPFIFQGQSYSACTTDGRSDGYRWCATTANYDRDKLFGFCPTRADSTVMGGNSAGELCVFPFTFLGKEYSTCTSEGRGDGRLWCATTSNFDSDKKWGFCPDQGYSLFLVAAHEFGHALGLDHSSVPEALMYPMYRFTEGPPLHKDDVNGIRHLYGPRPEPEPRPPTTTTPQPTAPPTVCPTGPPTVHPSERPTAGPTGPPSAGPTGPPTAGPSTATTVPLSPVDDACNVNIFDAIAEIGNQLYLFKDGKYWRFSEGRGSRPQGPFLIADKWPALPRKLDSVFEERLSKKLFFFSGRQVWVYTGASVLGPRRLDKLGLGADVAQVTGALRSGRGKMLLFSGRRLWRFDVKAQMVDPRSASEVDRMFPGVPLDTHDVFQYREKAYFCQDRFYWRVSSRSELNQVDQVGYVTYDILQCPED
T11 sequence (P34960 110-473): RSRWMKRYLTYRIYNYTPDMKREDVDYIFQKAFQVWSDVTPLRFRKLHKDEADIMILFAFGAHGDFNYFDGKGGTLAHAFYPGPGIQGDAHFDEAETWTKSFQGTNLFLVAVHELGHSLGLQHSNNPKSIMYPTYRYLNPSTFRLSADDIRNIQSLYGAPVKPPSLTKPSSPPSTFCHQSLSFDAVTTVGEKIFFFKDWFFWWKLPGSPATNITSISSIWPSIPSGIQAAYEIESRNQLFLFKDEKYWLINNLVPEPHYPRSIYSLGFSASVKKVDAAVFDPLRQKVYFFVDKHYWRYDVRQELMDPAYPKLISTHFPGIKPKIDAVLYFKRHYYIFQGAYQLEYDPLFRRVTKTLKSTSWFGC

| Compound | Ki [1] [µM] | Ki [2] [µM] | Ki [3] [µM] | Ki [4] [µM] | Ki [5] [µM] | Ki [6] [µM] | Ki [7] [µM] | Ki [8] [µM] | Ki [9] [µM] | Ki [10] [µM] | Ki [11] [µM] | Ki [12] [µM] | effect on atherosclerotic plaque [13] | loss of potency toward MMP-10 compared with RXP470.1 ([2]; relative to RXP470.1) | loss of potency toward MMP-13 compared with RXP470.1 ([3]; relative to RXP470.1) | loss of potency (drop in affinity) toward MMP-9 compared with RXP470.1 ([9]; factor relative to RXP470.1) | difference in potency towards MMP-12, factor relative to probe 1 ([10]; relative to probe 1) | probe co-localization with F4/80 positive cells ([14]; aneurysmal carotid artery sections) | probe signal co-localization with MMP-12 ([14]; aneurysmal left carotid artery sections) |
| --- | --- | --- | --- | --- | --- | --- | --- | --- | --- | --- | --- | --- | --- | --- | --- | --- | --- | --- | --- |
| NC(=O)[C@H](CCC(=O)O)NC(=O)[C@H](CCC(=O)O)NC(=O)[C@H](Cc1cc(-c2ccc(-c3cccc(Cl)c3)cc2)no1)CP(=O)(O)c1ccc(Br)cc1 [RXP470.1, reference compound] | > 10 | 0.017 ± 0.02 | 0.011 ± 0.01 | 0.15 ± 0.021 | 0.052 ± 0.004 | 0.08 ± 0.002 | 0.518 ± 0.04 | 0.12 ± 0.04 | 0.17 ± 0.05 | 0.00026 | > 10 | 6.1 ± 0.1 | reduces atherosclerotic plaque area and promotes a fibrous plaque phenotype | – | – | – | – | – | – |
| CC[N+]1=C(/C=C/C=C/C=C2/N(CCCCCC(=O)NCCCOCCOCCOCCCNC(=O)[C@H](CCC(=O)O)NC(=O)[C@H](CCC(=O)O)NC(=O)[C@H](Cc3cc(-c4ccc(-c5cccc(Cl)c5)cc4)no3)CP(=O)(O)c3ccc(Br)cc3)c3ccc4c(S(=O)(=O)[O-])cc(S(=O)(=O)O)cc4c3C2(C)C)C(C)(C)c2c1ccc1c(S(=O)(=O)O)cc(S(=O)(=O)O)cc21 [probe 1] | > 10 | 0.071 ± 0.05 | 0.074 ± 0.07 | 1.13 ± 0.061 | 0.973 ± 0.063 | 0.031 ± 0.002 | 1.623 ± 0.013 | 2.07 ± 0.022 | 4.167 ± 0.041 | 0.0009 | > 10 | 1.49 ± 0.129 | – | less than ten times | less than ten times | – | – | – | – |
| CC[N+]1=C(/C=C/C=C2/N(CCCCCC(=O)NCCCOCCOCCOCCCNC(=O)[C@H](CCC(=O)O)NC(=O)[C@H](CCC(=O)O)NC(=O)[C@H](Cc3cc(-c4ccc(-c5cccc(Cl)c5)cc4)no3)CP(=O)(O)c3ccc(Br)cc3)c3ccc(S(=O)(=O)[O-])cc3C2(C)C)C(C)(C)c2cc(S(=O)(=O)O)ccc21 [probe 2] | 7.212 ± 0.066 | – | 0.136 ± 0.015 | 0.802 ± 0.058 | 1.07 ± 0.018 | 0.188 ± 0.022 | 1.85 ± 0.071 | 1.44 ± 0.035 | 8.76 ± 0.05 | 0.0061 ± 0.0001 | > 10 | > 10 | – | – | – | 50 | 7 | co-localized | partially co-localized |
